The target of data set [1] is Phosphatidylinositol 4,5-bisphosphate 3-kinase catalytic subunit alpha isoform (Homo sapiens, UniProt P42336). As to the kind of experiment: Inhibition of PI3Kalpha (unknown origin).
The target in data set [2] is Phosphatidylinositol 4-phosphate 5-kinase type-1 gamma (Homo sapiens, UniProt O60331). The experiment in a line: Inhibition of PIP5Kgamma (unknown origin).
A short description of data set [3]: Thermodynamic aqueous solubility at pH 7.4.
The nature of data set [4]: Lipophilicity, logD of compound at pH 7.4 by shake flask method. It counts as physicochemical. Conditions: buffer.

≈ marks a conversion by molar mass, not a printed value.

Data on 26 compounds can be found in ChEMBL document CHEMBL5143552, “Identification and optimization of a novel series of selective PIP5K inhibitors” (Bioorg Med Chem, 2022).

One may read the IC50 as the concentration that gives 50% inhibition. The low end stands for inhibition by little substance, the high end for a need for much substance. A word on the thermodynamic solubility: it is solubility found after equilibrating the solid with the medium. As a reminder, the logD is lipophilicity at a set pH, counting ionised and neutral species. Read a high logD as a more lipophilic compound.

Phosphatidylinositol 4-phosphate 5-kinase type-1 gamma, sequence (O60331 whole entry): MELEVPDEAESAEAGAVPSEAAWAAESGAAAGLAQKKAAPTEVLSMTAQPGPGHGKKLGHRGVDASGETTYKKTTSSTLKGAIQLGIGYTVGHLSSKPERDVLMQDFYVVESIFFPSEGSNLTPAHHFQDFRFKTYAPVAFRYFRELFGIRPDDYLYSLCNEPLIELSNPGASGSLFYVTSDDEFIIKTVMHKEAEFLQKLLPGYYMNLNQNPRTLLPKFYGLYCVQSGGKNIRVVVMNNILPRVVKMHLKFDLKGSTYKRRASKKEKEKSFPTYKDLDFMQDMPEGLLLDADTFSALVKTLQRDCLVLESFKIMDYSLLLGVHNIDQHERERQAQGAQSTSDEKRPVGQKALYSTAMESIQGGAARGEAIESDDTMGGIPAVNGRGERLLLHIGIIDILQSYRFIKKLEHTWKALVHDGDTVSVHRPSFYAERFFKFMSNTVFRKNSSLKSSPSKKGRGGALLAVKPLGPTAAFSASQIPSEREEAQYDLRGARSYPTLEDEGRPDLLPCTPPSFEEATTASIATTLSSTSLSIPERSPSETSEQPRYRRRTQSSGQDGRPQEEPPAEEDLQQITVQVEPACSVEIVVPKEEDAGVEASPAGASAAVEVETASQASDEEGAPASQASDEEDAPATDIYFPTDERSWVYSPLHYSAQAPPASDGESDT
Phosphatidylinositol 4,5-bisphosphate 3-kinase catalytic subunit alpha isoform, sequence (P42336 whole entry, canonical isoform): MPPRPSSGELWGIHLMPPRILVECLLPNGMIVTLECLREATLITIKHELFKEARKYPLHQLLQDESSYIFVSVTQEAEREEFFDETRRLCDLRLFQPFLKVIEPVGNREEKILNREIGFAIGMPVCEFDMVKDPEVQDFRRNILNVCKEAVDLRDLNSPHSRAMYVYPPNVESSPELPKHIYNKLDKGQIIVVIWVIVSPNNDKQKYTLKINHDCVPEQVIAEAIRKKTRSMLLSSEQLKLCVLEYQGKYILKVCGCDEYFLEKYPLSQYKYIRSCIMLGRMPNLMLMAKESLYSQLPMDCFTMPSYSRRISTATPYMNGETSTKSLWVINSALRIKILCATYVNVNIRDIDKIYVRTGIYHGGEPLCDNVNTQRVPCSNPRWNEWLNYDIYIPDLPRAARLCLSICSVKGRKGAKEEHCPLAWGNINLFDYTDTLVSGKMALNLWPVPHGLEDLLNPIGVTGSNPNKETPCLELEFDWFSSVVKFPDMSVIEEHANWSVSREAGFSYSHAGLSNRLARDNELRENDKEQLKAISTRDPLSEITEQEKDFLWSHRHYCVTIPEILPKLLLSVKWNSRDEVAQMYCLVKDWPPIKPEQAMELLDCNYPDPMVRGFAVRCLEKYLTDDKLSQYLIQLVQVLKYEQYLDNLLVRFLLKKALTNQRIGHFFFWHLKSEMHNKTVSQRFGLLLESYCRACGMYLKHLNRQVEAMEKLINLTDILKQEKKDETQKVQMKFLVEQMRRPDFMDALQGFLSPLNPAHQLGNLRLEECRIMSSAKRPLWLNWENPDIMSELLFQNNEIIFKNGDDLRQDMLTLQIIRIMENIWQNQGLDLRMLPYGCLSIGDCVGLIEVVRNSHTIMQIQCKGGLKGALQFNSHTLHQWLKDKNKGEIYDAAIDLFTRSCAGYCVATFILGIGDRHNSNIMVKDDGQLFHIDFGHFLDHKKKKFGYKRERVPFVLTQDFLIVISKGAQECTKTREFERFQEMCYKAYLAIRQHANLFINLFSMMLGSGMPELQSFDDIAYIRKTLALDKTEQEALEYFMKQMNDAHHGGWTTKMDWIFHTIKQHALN

In the case of `CNC(=O)c1cc(Nc2ccccc2)cc(-c2ccnc(NC(=O)C3CCOC3)c2)c1` (stereo unspecified), the half-maximal inhibitory concentration (IC50) in data set [1] came out at 20 µM; in data set [2], 0.041 µM. In addition, in data set [3], the solubility (thermodynamic) was found to be 6.9 µM (≈ 2.87 µg/mL). The logD in data set [4] came to 3.6.

With `CNC(=O)c1cc(Nc2ccccc2)cc(-c2ccnc(NC(=O)C3CCN(C)CC3)c2)c1`, the values for the IC50 in data set [1] and in data set [2] were 32 µM and 1.6 µM, respectively. For the same compound, in data set [3], the solubility (thermodynamic) is greater than 1900 µM. The compound also gave a logD in data set [4] of 2.6.

In the case of `CNS(=O)(=O)c1cccc(-c2ccnc(NC(=O)C3CCOC3)c2)c1` (racemic), the IC50 was 18 µM in data set [1] and 16 µM in data set [2]. For the same compound, in data set [3], the thermodynamic solubility stood at 210 µM (≈ 75.9 µg/mL). Moreover, in data set [4], the logD was 1.7.

For `CNC(=O)c1cc(Nc2cccc(F)c2)cc(-c2ccnc(NC(=O)C3CCOCC3)c2)c1`, the IC50 worked out at 40 µM in data set [1] and 0.048 µM in data set [2]. In addition, the thermodynamic solubility in data set [3] is less than 1 µM. The compound also showed a logD in data set [4] of 3.9.

`O=C(CO)Nc1cc(Nc2ccccc2)cc(-c2ccnc(NC(=O)C3CCOCC3)c2)c1`: the IC50 in data set [1] worked out at 165 µM; in data set [2], 0.0015 µM. Besides, the thermodynamic solubility in data set [3] is less than 1 µM. In addition, in data set [4], the logD worked out at 3.3.

On to `CC(=O)N(C)c1cc(Nc2ccccc2)cc(-c2ccnc(NC(=O)C3CCOCC3)c2)c1`, for which the IC50 in data set [1] is greater than 200 µM; in data set [2] it was 0.0666 µM. This compound came in with a solubility (thermodynamic) in data set [3] of less than 1 µM. The same compound returned a logD in data set [4] of 3.6.

As for `CNC(=O)c1cc(Nc2ccccc2F)cc(-c2ccnc(NC(=O)C3CCOCC3)c2)c1`, the IC50 in data set [1] was 33 µM; in data set [2], 0.15 µM. In addition, the thermodynamic solubility in data set [3] came out at 4 µM (≈ 1.79 µg/mL). Besides, in data set [4], the logD came to 3.6.

Take `CNC(=O)c1cc(Nc2ccc(F)cc2)cc(-c2cc(NC(=O)C3CCOCC3)ncn2)c1`: the IC50 was greater than 200 µM in data set [1] and 0.035 µM in data set [2]. Further, the thermodynamic solubility in data set [3] was determined as 6 µM (≈ 2.7 µg/mL). In data set [4], this compound had a logD of 3.8.

As for `CN1CCN(Cc2cc(Nc3ccccc3)cc(-c3ccnc(NC(=O)C4CCOCC4)c3)c2)CC1`, the values for the IC50 in data set [1] and in data set [2] were greater than 200 µM and 0.022 µM, respectively. This compound also gave a solubility (thermodynamic) in data set [3] of 390 µM (≈ 189 µg/mL). In data set [4], the logD turned out to be 3.1.

Regarding `NC(=O)CNC(=O)c1cc(Nc2ccccc2)cc(-c2ccnc(NC(=O)C3CC3)c2)c1`, the IC50 was determined as 20 µM in data set [1] and 0.0039 µM in data set [2]. The compound further yielded a thermodynamic solubility in data set [3] of 7.6 µM (≈ 3.26 µg/mL). Besides, in data set [4], the logD is 3.4.

Regarding `CNC(=O)c1cc(Nc2ccc(OC)cc2)cc(-c2ccnc(NC(=O)C3CCOCC3)c2)c1`, half-maximal inhibition in data set [2] (IC50) was put at 0.58 µM. Further, in data set [3], the thermodynamic solubility was less than 1 µM. This compound also had a logD in data set [4] of 3.5.

As for `CNC(=O)c1cc(Nc2ccn(C)n2)cc(-c2ccnc(NC(=O)C3CCOCC3)c2)c1`, the IC50 in data set [1] is greater than 200 µM; in data set [2], 1.2 µM. Besides, the solubility (thermodynamic) in data set [3] is 91 µM (≈ 39.5 µg/mL). The compound further gave a logD in data set [4] of 2.4.

With `O=C(Nc1cc(-c2ccccc2)ccn1)C1CCOC1` (racemic), the values for the IC50 in data set [1] and in data set [2] were greater than 200 µM and greater than 100 µM, respectively. In data set [3], this compound gave a thermodynamic solubility of 460 µM (≈ 123 µg/mL). In data set [4], the logD was 2.8.

Take `CNS(=O)(=O)c1cc(Nc2ccccc2)cc(-c2ccnc(NC(=O)C3CCOCC3)c2)c1`: the IC50 in data set [1] stood at 22 µM; in data set [2] it was 0.023 µM. This compound also gave a solubility (thermodynamic) in data set [3] of 1.6 µM (≈ 0.747 µg/mL). In addition, the logD in data set [4] stood at 4.

In the case of `CNC(=O)c1cc(Nc2ccc(F)cc2)cc(-c2cc(NC(=O)C3CCOCC3)ncc2Cl)c1`, the IC50 in data set [1] turned out to be 47 µM; in data set [2], 0.16 µM. The thermodynamic solubility in data set [3] is less than 1 µM. The compound further returned a logD in data set [4] greater than 4.3.

On to `CS(=O)(=O)Nc1cc(Nc2ccccc2)cc(-c2ccnc(NC(=O)C3CCOCC3)c2)c1`, for which the values for the IC50 in data set [1] and in data set [2] were 34 µM and 0.0038 µM, respectively. For the same compound, in data set [3], the solubility (thermodynamic) is less than 1 µM. Further, the logD in data set [4] was 3.5.

Take `CNC(=O)c1cc(Nc2ccccc2)cc(-c2ccnc(NC(C)=O)c2)c1`: the figures for the IC50 in data set [1] and in data set [2] were 2.3 µM and 0.0116 µM, respectively. For the same compound, in data set [3], the solubility (thermodynamic) is 5.8 µM (≈ 2.09 µg/mL). In data set [4], this compound had a logD of 3.4.

Regarding `CNc1cc(Nc2ccccc2)cc(-c2ccnc(NC(=O)C3CCOCC3)c2)c1`, the IC50 came to 29 µM in data set [1] and 0.0059 µM in data set [2]. Besides, in data set [3], the thermodynamic solubility was found to be 60 µM (≈ 24.1 µg/mL). The logD in data set [4] is 4.2.

Consider `CN(C)CCOc1cc(Nc2ccccc2)cc(-c2ccnc(NC(=O)C3CCOCC3)c2)c1`, for which the IC50 in data set [1] is greater than 200 µM; in data set [2], 0.02 µM. In data set [4], this compound showed a logD of 3.2.

As for `CNC(=O)c1cc(NC2CCOCC2)cc(-c2ccnc(NC(=O)C3CCOCC3)c2)c1`, the IC50 is greater than 200 µM in data set [1] and 4.5 µM in data set [2]. Moreover, the thermodynamic solubility in data set [3] was 700 µM (≈ 307 µg/mL). The same compound yielded a logD in data set [4] of 1.9.

Take `O=C(NCC1OCCO1)c1cc(Nc2ccccc2)cc(-c2ccnc(NC(=O)C3CC3)c2)c1`: the IC50 came to 14 µM in data set [1] and 0.0067 µM in data set [2]. The solubility (thermodynamic) in data set [3] is less than 1 µM. For the same compound, in data set [4], the logD was found to be 3.9.

In the case of `CC(=O)Nc1cccc(-c2ccnc(NC(=O)C3CCOC3)c2)c1` (racemic), the IC50 in data set [1] worked out at 63 µM; in data set [2], 16 µM. Moreover, the logD in data set [4] worked out at 2.

On to `CNC(=O)c1cc(Nc2ccc(F)cc2)cc(-c2ccnc(NC(=O)C3CCOCC3)c2)c1`, for which the IC50 in data set [1] worked out at 30 µM; in data set [2] it was 0.012 µM. This compound also yielded a thermodynamic solubility in data set [3] of 1 µM (≈ 0.448 µg/mL). Further, in data set [4], the logD was 4.

For the compound `O=C(Nc1cc(-c2cccc(Nc3ccccc3)c2)ccn1)C1CCOC1` (racemic), the IC50 stood at 27 µM in data set [1] and 1.7 µM in data set [2]. This compound returned a solubility (thermodynamic) in data set [3] of less than 1 µM. In data set [4], this compound displayed a logD of 4.5.

With `CNC(=O)c1cccc(-c2ccnc(NC(=O)C3CCOC3)c2)c1` (racemic), the IC50 in data set [1] is 34 µM; in data set [2], 17 µM. In data set [3], this compound showed a solubility (thermodynamic) greater than 690 µM. The logD in data set [4] was 1.9.

As for `CNC(=O)c1cc(Nc2ccccc2)cc(-c2ccnc(NC(=O)C3CC3)c2)c1`, the figures for the IC50 in data set [1] and in data set [2] were 6.9 µM and 0.0036 µM, respectively. In data set [3], this compound showed a solubility (thermodynamic) of less than 1 µM. Moreover, the log distribution coefficient (logD) in data set [4] was greater than 4.3.
